Patent US12491173B2, “Metabolism-improving agent comprising rare fatty acid” (Noster Inc., priority 2014, dated 2025)

Columns and labels:
[1] = target: T1, fusion protein of PPARγ ligand binding region and GAL4 DNA binding region (Homo sapiens, UniProt P37231); test: PPARγ ligand activity, GAL4 fusion luciferase reporter assay in CV-1 cell; assay type: cell-based; conditions: sample 10 μM and 30 μM, vs ethanol negative control, FIG. 3
T1 construct: expressed in transfected cells; host or cells: CV-1 cell
T1 sequence (P37231 238-503 limits assumed): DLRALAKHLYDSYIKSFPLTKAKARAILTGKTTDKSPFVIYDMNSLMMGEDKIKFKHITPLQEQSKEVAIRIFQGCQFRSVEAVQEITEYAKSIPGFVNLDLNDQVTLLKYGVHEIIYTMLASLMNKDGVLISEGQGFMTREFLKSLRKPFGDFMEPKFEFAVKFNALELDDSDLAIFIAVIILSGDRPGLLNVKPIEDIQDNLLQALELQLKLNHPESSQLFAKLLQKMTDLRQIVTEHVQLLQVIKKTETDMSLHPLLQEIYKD
Protocol: (§1) To evaluate the function of hydroxylated fatty acid and oxo fatty acid and the like, PPARα, γ-activating action was measured first. The measurement was performed in reference to Nobuyuki Takahashi et al., FEBS Letters 514 (2002) p. 315-322, “Dual action of isoprenols from herbal medicines on both PPARgamma and PPARalpha in 3T3-L1 adipocytes and HepG2 hepatocytes.”, the section of Materials and Methods “Reporter plasmids and luciferase assays”. To be specific, PPARα,γ ligand activity was measured by a reporter assay that evaluates binding to a fusion protein of PPAR ligand binding region and GAL4 DNA binding region and target gene activation, based on the expression of luciferase. Specifically, a plasmid comprising a DNA encoding a fusion protein of PPARα,γ ligand binding region and GAL4 DNA binding region and a reporter plasmid wherein luciferase linked to GAL4 bound DNA sequence were introduced into CV-1 cell, a ligand described below was added to the cell, the cell was incubated and the luciferase activity was detected.
(§2) The concentration (10 μM and 30 μM) of the sample was adjusted with ethanol. Ethanol was used as a negative control, and PPARα,γ ligands GW7647 (10 nM) and troglitazone (5 μM) were used as a positive control.

[2] = target: T2, fusion protein of PPARα ligand binding region and GAL4 DNA binding region (Homo sapiens, UniProt Q07869); test: PPARα ligand activity, GAL4 fusion luciferase reporter assay in CV-1 cell; assay type: cell-based; conditions: sample 10 μM and 30 μM, vs ethanol negative control, FIG. 2
T2 construct: expressed in transfected cells; host or cells: CV-1 cell
T2 sequence (Q07869 239-466 limits assumed): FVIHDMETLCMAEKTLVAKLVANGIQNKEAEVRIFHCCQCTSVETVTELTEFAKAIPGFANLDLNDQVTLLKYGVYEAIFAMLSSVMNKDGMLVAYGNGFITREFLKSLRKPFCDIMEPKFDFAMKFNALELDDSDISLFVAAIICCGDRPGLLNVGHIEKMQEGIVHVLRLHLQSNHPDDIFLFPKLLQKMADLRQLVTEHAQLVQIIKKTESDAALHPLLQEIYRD
Protocol: as §1, §2

Compound	PPARγ agonist activity (relative luciferase activity) [1]	PPARα agonist activity (relative luciferase activity) [2]
CC/C=C\CC(=O)CC/C=C\CCCCCCCC(=O)O [13-OXO ALA, 13-oxo-cis-9,cis-15-octadecadienoic acid]	strong PPARγ agonist activity	–
CCCCCC(=O)CC/C=C\C/C=C\CCCCC(=O)O [13-OXO GLA, 13-oxo-cis-6,cis-9-octadecadienoic acid]	–	strong PPARα agonist activity
